Measured values as given in patent US20040235939A1, “Synthesis of peloruside a and analogs thereof for use as antitumor agents” (priority 2003, published 2004).
pIC50: −log10 of the molar value. Read-outs that look alike come from different tables or passages of the source.

Tests used:
Mia PaCa-2 = assay: SRB cytotoxicity assay, Mia PaCa-2; assay type: cell-based; settings: Homo sapiens, Mia PaCa-2, Pancreas, read-out: GI50
Description: (§1) Cells were treated on Days 1, 3, 5, and 7 with 5 μL of media, vehicle, or drug. Peloruside A was resuspended in 0.1% DMSO and added to wells to a final concentration of 0.01, 0.1, 1, 10 or 100 nM. Taxol® (Sigma-Aldrich) was resuspended in 0.1% ethanol and added to cells to a final concentration of 0.1, 1, 10, 100, or 1000 nM.
(§2) The amount of surviving cells was measured using the sulforhodamine B (SRB) assay as previously described (Skehan et al., New colorimetric cytotoxicity assay for anticancer-drug screening. J. Natl. Cancer Inst., 1990. 82(13): p. 1107-12). Cells were fixed on Days 5, 7, and 9 (representing 4, 6, and 8 days of exposure to drug or control, respectively) with 50% (w/v) trichloroacetic acid for 1 hour at 4° C., rinsed thoroughly with water, and dried overnight. The dried cells were stained with 4% sulforhodamine B in 1% acetic acid, rinsed thoroughly and dried overnight. The bound dye was resuspended in 10 mM Tris and the absorbance was read at 492 nm. Percent growth inhibition (GI) was calculated as follows: %GI=(1−(absorbance sample/absorbance vehicle))×100. The absorbance value for each drug concentration and control represents the average of 6 replicates. The %GI was plotted against the log[drug] to generate the growth curves. The concentration of drug required to inhibit growth by 50% (GI50) was calculated for each time point.

LoVo = assay: SRB cytotoxicity assay, LoVo; assay type: cell-based; settings: Homo sapiens, Colon, read-out: GI50
Description: as §1, §2

SK-MEL-28 = assay: SRB cytotoxicity assay, SK-MEL-28; assay type: cell-based; settings: Homo sapiens, SK-MEL-28, Melanoma, read-out: GI50
Description: as §1, §2

MDA-MB-231 = assay: SRB cytotoxicity assay, MDA-MB-231; assay type: cell-based; settings: Homo sapiens, MB-MDA-231, Breast, read-out: GI50
Description: as §1, §2

HCT-15 = assay: SRB cytotoxicity assay, HCT-15; assay type: cell-based; settings: Homo sapiens, HCT-15, Colon, read-out: GI50
Description: as §1, §2

NCI-H1395 = assay: SRB cytotoxicity assay, NCI-H1395; assay type: cell-based, human; settings: NCl-H1395, Lung
Description: as §1, §2

SK-HEP-1 = assay: SRB cytotoxicity assay, SK-HEP-1; assay type: cell-based; settings: Homo sapiens, SK-HEP-1, Liver, read-out: GI50
Description: as §1, §2

NCI-H460 = assay: SRB cytotoxicity assay, NCI-H460; assay type: cell-based; settings: Homo sapiens, NCl-H460, Lung, read-out: GI50
Description: as §1, §2

A498 = assay: SRB cytotoxicity assay, A498; assay type: cell-based; settings: Homo sapiens, A498, Renal, read-out: GI50
Description: as §1, §2

CAKI-1 = assay: SRB cytotoxicity assay, CAKI-1; assay type: cell-based; settings: Homo sapiens, CAK1-1, Renal, read-out: GI50
Description: as §1, §2

NCI-H23 = assay: SRB cytotoxicity assay, NCI-H23; assay type: cell-based; settings: Homo sapiens, NCl-H23, Lung, read-out: GI50
Description: as §1, §2

SK-OV-3 = assay: SRB cytotoxicity assay, SK-OV-3; assay type: cell-based; settings: Homo sapiens, SK-OV-3, Ovarian, read-out: GI50
Description: as §1, §2

Hep-G2 = assay: SRB cytotoxicity assay, Hep-G2; assay type: cell-based; settings: Homo sapiens, Hep G2, Liver, read-out: GI50
Description: as §1, §2

NCI-H2887 = assay: SRB cytotoxicity assay, NCI-H2887; assay type: cell-based, human; settings: NCl-H2887, Lung
Description: as §1, §2

HCT-116 = assay: SRB cytotoxicity assay, HCT-116; assay type: cell-based; settings: Homo sapiens, HCT-116, Colon, read-out: GI50
Description: as §1, §2

Capan-1 = assay: SRB cytotoxicity assay, Capan-1; assay type: cell-based; settings: Homo sapiens, Capan-1, Pancreas, read-out: GI50
Description: as §1, §2

PC-3 = assay: SRB cytotoxicity assay, PC-3; assay type: cell-based; settings: Homo sapiens, PC-3, Prostate, read-out: GI50
Description: as §1, §2

SK-MEL-5 = assay: SRB cytotoxicity assay, SK-MEL-5; assay type: cell-based; settings: Homo sapiens, SK-MEL-5, Melanoma, read-out: GI50
Description: as §1, §2

ptx10 cells = assay: Cell Titer-Glo cell viability, Taxol-resistant ptx10 cells; settings: Homo sapiens, PTX10, 48 h, read-out: concentration to reduce cell viability to approximately 50%
Description: These cell lines have specific amino acid mutations in tubulin that prevent Taxol®-binding. […] Synthetic (+)-Peloruside A was used for the present example.
1A9, ptx10 and ptx22 cells were plated in 96-well plates to approximately 50% confluency. On the next day, Taxol® or Peloruside A was added to each well and incubated for 48 hours. A final concentration of 1, 2, 3, 4, 5, 8, 10, 20, 30, 50, 100, 300, 500, or 1000 nM of Taxol® was used. A final concentration of 10, 20, 30, 40, 50 or 70 nM of Peloruside A was used. Cell viability was measured using the Cell Titer-Glo Luminescent Cell Viability Assay (Promega). FIGS. 80-82 show bar graphs of cell viability at various concentrations of Peloruside A and Taxol®.

[1] = test system: BSC-1 (Monkey Kidney epithelial) cells; assay: Immunofluorescent staining of tubulin in BSC-1 cells; assay type: cell-based; settings: 200 nM of Taxol® or 50 nM of Peloruside A
DU-145 = assay: SRB cytotoxicity assay, DU-145; assay type: cell-based; settings: Homo sapiens, DU-145, Prostate, read-out: GI50
Description: as §1, §2

**Q.** With CC(=O)O[C@H]1C(=O)[C@@]2(C)[C@H]([C@H](OC(=O)c3ccccc3)[C@]3(O)C[C@H](OC(=O)[C@H](O)[C@@H](NC(=O)c4ccccc4)c4ccccc4)C(C)=C1C3(C)C)[C@]1(OC(C)=O)CO[C@@H]1C[C@@H]2O [Paclitaxel, paclitaxel, reference compound] as the compound, how does the GI50 (Mia PaCa-2; 96 h, 4 Days) read?
**A.** Its GI50 is 0.73 nM.

**Q.** What about the GI50 (Mia PaCa-2; 144 h, 6 Days) of the same compound?
**A.** The GI50 was 0.53 nM.

**Q.** What about the GI50 (Mia PaCa-2; 192 h, 8 Days) of the same compound?
**A.** Its GI50 is 0.27 nM.

**Q.** What about the GI50 (LoVo; 96 h, 4 Days) of the same compound?
**A.** The GI50 was 1.91 nM.

**Q.** And the GI50 (LoVo; 144 h, 6 Days)?
**A.** The GI50 was 1.95 nM.

**Q.** What about the GI50 (LoVo; 192 h, 8 Days) of the same compound?
**A.** Its GI50 is 3.92 nM.

**Q.** What about the GI50 (SK-MEL-28; 96 h, 4 Days) of the same compound?
**A.** Its GI50 is 0.76 nM.

**Q.** What about the GI50 (SK-MEL-28; 144 h, 6 Days) of the same compound?
**A.** Its GI50 is 0.2 nM.

**Q.** What about the GI50 (SK-MEL-28; 192 h, 8 Days) of the same compound?
**A.** The GI50 was 0.01 nM.

**Q.** And the GI50 (MDA-MB-231; MDA-MB-231, 144 h, 6 Days)?
**A.** The GI50 was 0.09 nM.

**Q.** And the GI50 (MDA-MB-231; MDA-MB-231, 192 h, 8 Days)?
**A.** Its GI50 is 0.01 nM.

**Q.** And the GI50 (HCT-15; 96 h, 4 Days)?
**A.** The GI50 was 49.1 nM.

**Q.** What about the GI50 (HCT-15; 144 h, 6 Days) of the same compound?
**A.** Its GI50 is 24 nM.

**Q.** What about the GI50 (HCT-15; 192 h, 8 Days) of the same compound?
**A.** The GI50 was 26.7 nM.

**Q.** And the GI50 (NCI-H1395; Homo sapiens, NCI-H1395, 144 h, 6 Days, read-out: GI50)?
**A.** Its GI50 is 6.81 nM.

**Q.** What about the GI50 (NCI-H1395; Homo sapiens, NCI-H1395, 192 h, 8 Days, read-out: GI50) of the same compound?
**A.** The GI50 was 5.27 nM.

**Q.** What about the GI50 (NCI-H1395; 4 Days) of the same compound?
**A.** Its GI50 is 4 Days: Resistant.

**Q.** And the GI50 (SK-HEP-1; SK-HEP1, 96 h, 4 Days)?
**A.** Its GI50 is 5.6 nM.

**Q.** And the GI50 (SK-HEP-1; SK-HEP1, 144 h, 6 Days)?
**A.** The GI50 was 2.85 nM.

**Q.** And the GI50 (SK-HEP-1; SK-HEP1, 192 h, 8 Days)?
**A.** The GI50 was 0.45 nM.

**Q.** What about the GI50 (NCI-H460; NCI-H460, 96 h, 4 Days) of the same compound?
**A.** Its GI50 is 0.25 nM.

**Q.** And the GI50 (NCI-H460; NCI-H460, 144 h, 6 Days)?
**A.** The GI50 was 0.57 nM.

**Q.** And the GI50 (NCI-H460; NCI-H460, 192 h, 8 Days)?
**A.** The GI50 was 0.56 nM.

**Q.** What about the GI50 (A498; 96 h, 4 Days) of the same compound?
**A.** The GI50 was 46.1 nM.

**Q.** And the GI50 (A498; 144 h, 6 Days)?
**A.** The GI50 was 9.75 nM.

**Q.** What about the GI50 (A498; 192 h, 8 Days) of the same compound?
**A.** Its GI50 is 7.57 nM.

**Q.** What about the GI50 (CAKI-1; CAKI-1, 96 h, 4 Days) of the same compound?
**A.** Its GI50 is 4.52 nM.

**Q.** And the GI50 (CAKI-1; CAKI-1, 144 h, 6 Days)?
**A.** Its GI50 is 1.21 nM.

**Q.** What about the GI50 (CAKI-1; CAKI-1, 192 h, 8 Days) of the same compound?
**A.** Its GI50 is 1.17 nM.

**Q.** What about the GI50 (NCI-H23; NCI-H23, 96 h, 4 Days) of the same compound?
**A.** Its GI50 is 1 nM.

**Q.** What about the GI50 (NCI-H23; NCI-H23, 144 h, 6 Days) of the same compound?
**A.** The GI50 was 1.12 nM.

**Q.** And the GI50 (NCI-H23; NCI-H23, 192 h, 8 Days)?
**A.** The GI50 was 0.18 nM.

**Q.** What about the GI50 (SK-OV-3; 144 h, 6 Days) of the same compound?
**A.** Its GI50 is 2.21 nM.

**Q.** What about the GI50 (SK-OV-3; 192 h, 8 Days) of the same compound?
**A.** The GI50 was 1.07 nM.

**Q.** And the GI50 (Hep-G2; HepG2, 96 h, 4 Days)?
**A.** Its GI50 is 2.82 nM.

**Q.** What about the GI50 (Hep-G2; HepG2, 144 h, 6 Days) of the same compound?
**A.** Its GI50 is 0.47 nM.

**Q.** And the GI50 (Hep-G2; HepG2, 192 h, 8 Days)?
**A.** The GI50 was 0.63 nM.

**Q.** What about the GI50 (NCI-H2887; Homo sapiens, NCI-H2887, 144 h, 6 Days, read-out: GI50) of the same compound?
**A.** The GI50 was 643 nM.

**Q.** And the GI50 (NCI-H2887; Homo sapiens, NCI-H2887, 192 h, 8 Days, read-out: GI50)?
**A.** The GI50 was 6.16 nM.

**Q.** And the GI50 (NCI-H2887; 4 Days)?
**A.** The GI50 was 4 Days: Resistant.

**Q.** And the GI50 (HCT-116; 96 h, 4 Days)?
**A.** Its GI50 is 1 nM.

**Q.** And the GI50 (HCT-116; 144 h, 6 Days)?
**A.** Its GI50 is 0.58 nM.

**Q.** What about the GI50 (HCT-116; 192 h, 8 Days) of the same compound?
**A.** The GI50 was 0.3 nM.

**Q.** And the GI50 (Capan-1; 96 h, 4 Days)?
**A.** The GI50 was 5.68 nM.

**Q.** What about the GI50 (Capan-1; 144 h, 6 Days) of the same compound?
**A.** Its GI50 is 0.91 nM.

**Q.** And the GI50 (Capan-1; 192 h, 8 Days)?
**A.** Its GI50 is 1.43 nM.

**Q.** And the GI50 (PC-3; 96 h, 4 Days)?
**A.** The GI50 was 0.78 nM.

**Q.** And the GI50 (PC-3; 144 h, 6 Days)?
**A.** The GI50 was 0.47 nM.

**Q.** And the GI50 (PC-3; 192 h, 8 Days)?
**A.** Its GI50 is 0.27 nM.

**Q.** And the GI50 (SK-MEL-5; 96 h, 4 Days)?
**A.** Its GI50 is 0.82 nM.

**Q.** What about the GI50 (SK-MEL-5; 144 h, 6 Days) of the same compound?
**A.** The GI50 was 1 nM.

**Q.** What about the GI50 (SK-MEL-5; 192 h, 8 Days) of the same compound?
**A.** Its GI50 is 0.27 nM.

**Q.** And the pIC50 (ptx10 cells)?
**A.** Its pIC50 is under 7.00.

**Q.** And the “formation of a bipolar spindle” value [1]?
**A.** The value was “the bipolar spindle does not form”.

**Q.** What about the GI50 (DU-145; 96 h, 4 Days) of the same compound?
**A.** Its GI50 is 0.54 nM.

**Q.** What about the GI50 (DU-145; 144 h, 6 Days) of the same compound?
**A.** Its GI50 is 0.53 nM.

**Q.** What about the GI50 (DU-145; 192 h, 8 Days) of the same compound?
**A.** The GI50 was 0.49 nM.
